Columns and labels:
[1] = target: T1, aromatic amino acid decarboxylase (AAAD) (Homo sapiens, UniProt P20711); details: given with L-DOPA; Nutt, Woodward et al. 1985; cited from earlier work
T1 sequence (P20711 1-480): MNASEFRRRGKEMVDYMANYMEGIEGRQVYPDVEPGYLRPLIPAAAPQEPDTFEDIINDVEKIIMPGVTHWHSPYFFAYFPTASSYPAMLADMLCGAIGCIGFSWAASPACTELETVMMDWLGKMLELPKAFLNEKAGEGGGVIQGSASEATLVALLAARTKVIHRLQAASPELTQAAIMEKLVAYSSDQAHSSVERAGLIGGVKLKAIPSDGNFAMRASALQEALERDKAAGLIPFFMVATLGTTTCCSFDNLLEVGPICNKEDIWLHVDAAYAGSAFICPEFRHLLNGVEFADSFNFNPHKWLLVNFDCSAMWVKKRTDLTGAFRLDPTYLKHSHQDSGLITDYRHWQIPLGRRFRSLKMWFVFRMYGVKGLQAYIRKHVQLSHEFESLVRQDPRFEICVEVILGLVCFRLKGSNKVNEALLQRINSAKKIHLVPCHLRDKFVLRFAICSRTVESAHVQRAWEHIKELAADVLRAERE

[2] = target: T2, catechol-O-methyltransferase (COMT) (Homo sapiens, UniProt P21964); assay: COMT inhibition assay (HTRF, production of SAH from SAM); type: biochemical; details: table does not say MB-COMT or S-COMT
T2 construct: M51A variant) was expressed in HEK 293F cells
T2 sequence (P21964 52-271 limits assumed): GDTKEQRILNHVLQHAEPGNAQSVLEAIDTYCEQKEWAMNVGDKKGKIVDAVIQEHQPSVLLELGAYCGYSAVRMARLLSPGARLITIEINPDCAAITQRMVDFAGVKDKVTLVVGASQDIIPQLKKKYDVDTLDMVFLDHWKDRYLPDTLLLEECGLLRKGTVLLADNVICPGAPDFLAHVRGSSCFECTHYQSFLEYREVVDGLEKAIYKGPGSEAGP
In short: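 Membranes from HEK293F cells expressing MB-COMT (M51A variant) incubated with 20 μM SAM and 1.5 μM dopamine plus compound (10 concentrations) for 40 min at 37 °C; S-COMT (Val158) at 0.15 ng/well used 100 μM dopamine, 15 min. SAH measured by HTRF against a standard curve; pIC50 from 4-parameter logistic fit.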

[3] = Nutt and Fellman 1984; cited from earlier work
[4] = Russ, et al. 1999; cited from earlier work
[5] = clinical use; Olanow and Watkins 2007; cited from earlier work

| SMILES | Activity range (pIC50) [2] | also measured |
| --- | --- | --- |
| C[C@@](Cc1ccc(O)c(O)c1)(NN)C(=O)O [Carbidopa] | – | reduction of the efficacious L-DOPA dose [1]: 60-80% |
| O=c1cc2n(cc1O)CC(Cc1ccccc1)N(Cc1c(Cl)cccc1Cl)C2 (stereo not shown) [Example 129, 3-benzyl-2-(2,6-dichlorobenzyl)-7-hydroxy-1,2,3,4-tetrahydro-8H-pyrido[1,2-a]pyrazin-8-one] | ++ (two plus signs (++) is associated with a pIC50 of from about 6 to 7) | – |
| CC1Cn2cc(O)c(=O)cc2CN1Cc1ccc(OC(F)(F)F)cc1 (stereo not shown) [Example 130, 7-hydroxy-3-methyl-2-[4-(trifluoromethoxy)benzyl]-1,2,3,4-tetrahydro-8H-pyrido[1,2-a]pyrazin-8-one] | ++ (two plus signs (++) is associated with a pIC50 of from about 6 to 7) | – |
| CC1Cn2cc(O)c(=O)cc2CN1Cc1ccccc1 (stereo not shown) [Example 131, 2-benzyl-7-hydroxy-3-methyl-1,2,3,4-tetrahydro-8H-pyrido[1,2-a]pyrazin-8-one] | ++ (two plus signs (++) is associated with a pIC50 of from about 6 to 7) | – |
| O=c1cc2n(cc1O)CC(CCc1ccccc1)N(Cc1ccccc1)C2 (stereo not shown) [Example 132, 2-benzyl-7-hydroxy-3-(2-phenylethyl)-1,2,3,4-tetrahydro-8H-pyrido[1,2-a]pyrazin-8-one] | +++ (three plus signs (+++) is associated with a pIC50 of above about 7) | – |
| O=c1c(O)cn2c(c1Cl)CN(Cc1c(F)cccc1Cl)CC2 [Example 133, 9-chloro-2-(2-chloro-6-fluorobenzyl)-7-hydroxy-1,2,3,4-tetrahydro-8H-pyrido[1,2-a]pyrazin-8-one] | +++ (three plus signs (+++) is associated with a pIC50 of above about 7) | – |
| O=c1cc2n(c(F)c1O)CCN(Cc1ccccc1Cl)C2 [Example 134, 6-fluoro-7-hydroxy-2-[[2-chlorophenyl]methyl]-3,4-dihydro-1H-pyrido[1,2-a]pyrazin-8-one] | ++ (two plus signs (++) is associated with a pIC50 of from about 6 to 7) | – |
| O=c1cc2n(c(F)c1O)CCN(Cc1ccc(OC(F)(F)F)cc1)C2 [Example 135, 2-[(4-(trifluoromethoxy)phenyl)methyl]-6-fluoro-7-hydroxy-3,4-dihydro-1H-pyrido[1,2-a]pyrazin-8-one] | ++ (two plus signs (++) is associated with a pIC50 of from about 6 to 7) | – |
| CCc1ccc(CN2CCn3cc(O)c(=O)c(Cl)c3C2)cc1 [Example 136, 9-chloro-2-(4-ethylbenzyl)-7-hydroxy-1,2,3,4-tetrahydro-8H-pyrido[1,2-a]pyrazin-8-one] | +++ (three plus signs (+++) is associated with a pIC50 of above about 7) | – |
| O=c1c(O)cn2c(c1Cl)CN(Cc1ccccc1Cl)CC2 [Example 137, 9-chloro-2-[(2-chlorophenyl)methyl]-7-hydroxy-3,4-dihydro-1H-pyrido[1,2-a]pyrazin-8-one] | +++ (three plus signs (+++) is associated with a pIC50 of above about 7) | – |
| CCc1ccc(CN2CCn3cc(O)c(=O)c(Br)c3C2)cc1 [Example 138, 9-bromo-2-(4-ethylbenzyl)-7-hydroxy-1,2,3,4-tetrahydro-8H-pyrido[1,2-a]pyrazin-8-one] | +++ (three plus signs (+++) is associated with a pIC50 of above about 7) | – |
| O=c1c(O)cn2c(c1Br)CN(Cc1ccccc1Cl)CC2 [Example 139, 9-bromo-2-[(2-chlorophenyl)methyl]-7-hydroxy-3,4-dihydro-1H-pyrido[1,2-a]pyrazin-8-one] | +++ (three plus signs (+++) is associated with a pIC50 of above about 7) | – |
| O=c1c(O)cn2c(c1I)CN(Cc1ccccc1Cl)CC2 [Example 140, 2-[(2-chlorophenyl)methyl]-7-hydroxy-9-iodo-3,4-dihydro-1H-pyrido[1,2-a]pyrazin-8-one] | + (a single plus (+) is associated with a pIC50 of from about 4.5 to 6) | – |
| CCc1ccc(CN2CCn3cc(O)c(=O)c(C4CC4)c3C2)cc1 [Example 141, 9-cyclopropyl-2-(4-ethylbenzyl)-7-hydroxy-1,2,3,4-tetrahydro-8H-pyrido[1,2-a]pyrazin-8-one] | ++ (two plus signs (++) is associated with a pIC50 of from about 6 to 7) | – |
| O=c1c(O)cn2c(c1C1CC1)CN(Cc1ccccc1Cl)CC2 [Example 142, 2-[(2-chlorophenyl)methyl]-9-cyclopropyl-7-hydroxy-3,4-dihydro-1H-pyrido[1,2-a]pyrazin-8-one] | +++ (three plus signs (+++) is associated with a pIC50 of above about 7) | – |
| N[C@@H](Cc1ccc(O)c(O)c1)C(=O)O [L-DOPA, L-dihydroxyphenylalanine] | – | percentage of exogenously administered L-DOPA that reaches the brain [3]: ~1% |
| CCN(CC)C(=O)/C(C#N)=C/c1cc(O)c(O)c([N+](=O)[O-])c1 [entacapone] | – | brain penetration [4]: negligible |
| Cc1ccc(C(=O)c2cc(O)c(O)c([N+](=O)[O-])c2)cc1 [tolcapone] | – | brain penetration [4]: low but measurable; liver injury [5]: serious liver injury, including three deaths |
